Test results published in the supplement of paper PMC13207355.

Assays:
Conditions in all cases: exposure time: 72 h
[1] = test system: FT3469 (normal neural stem cell line); assay: surviving fraction (nuclei count normalised to DMSO); higher = more cells surviving (less toxic)
[2] = test system: E13 (patient-derived glioblastoma stem cells of classical subtype); assay: as above
[3] = test system: E57 (patient-derived glioblastoma stem cells of mesenchymal subtype); assay: as above
[4] = test system: E28 (patient-derived glioblastoma stem cells of classical subtype); assay: as above
[5] = test system: E34 (patient-derived glioblastoma stem cells of proneural subtype); assay: as above
[6] = test system: E21 (patient-derived glioblastoma stem cells of mesenchymal subtype); assay: as above
[7] = test system: E31 (patient-derived glioblastoma stem cells of proneural subtype); assay: as above
[8] = test system: FT3469; assay: phenotypic distance (Euclidean, principal components) from DMSO controls (arbitrary units); higher = stronger morphological change
[9] = test system: E13; assay: as above
[10] = test system: E57; assay: as above
[11] = test system: E28; assay: as above
[12] = test system: E34; assay: as above
[13] = test system: E21; assay: as above
[14] = test system: E31; assay: as above
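For phenotypic distance (Euclidean, principal components) from DMSO controls in this document: cell Painting imaging in 384-well plates, CellProfiler features reduced to at least 20 principal components, Euclidean distance versus same-plate DMSO vehicle wells (0.1% v/v), median over six images per well.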
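For surviving fraction (nuclei count normalised to DMSO) in this document: nuclei counted by high-content imaging of Hoechst-stained cells in laminin-coated 384-well plates, relative to 0.1% DMSO vehicle wells, with staurosporine as cell-death control.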

CCCCCC[C@H]1C(=O)O[C@H](C)[C@H](NC(=O)c2cccc(NC=O)c2O)C(=O)O[C@@H](C)[C@@H]1OC(=O)CC(C)C [Antimycin A]
Conditions | phenotypic distance | surviving fraction
[1], 4.1 nM | – | 0.95
[1], 12.3 nM | – | 0.895
[1], 37 nM | – | 0.872
[1], 111.1 nM | – | 0.823
[1], 333.3 nM | – | 0.719
[1], 1000 nM | – | 0.929
[1], 3000 nM | – | 0.659
[2], 4.1 nM | – | 0.562
[2], 12.3 nM | – | 0.544
[2], 37 nM | – | 0.546
[2], 111.1 nM | – | 0.571
[2], 333.3 nM | – | 0.512
[2], 1000 nM | – | 0.538
[2], 3000 nM | – | 0.416
[3], 4.1 nM | – | 0.694
[3], 12.3 nM | – | 0.642
[3], 37 nM | – | 0.581
[3], 111.1 nM | – | 0.515
[3], 333.3 nM | – | 0.61
[3], 1000 nM | – | 0.513
[3], 3000 nM | – | 0.466
[4], 4.1 nM | – | 0.8
[4], 12.3 nM | – | 0.561
[4], 37 nM | – | 0.625
[4], 111.1 nM | – | 0.585
[4], 333.3 nM | – | 0.506
[4], 1000 nM | – | 0.527
[4], 3000 nM | – | 0.521
[5], 4.1 nM | – | 0.771
[5], 12.3 nM | – | 0.666
[5], 37 nM | – | 0.745
[5], 111.1 nM | – | 0.619
[5], 333.3 nM | – | 0.717
[5], 1000 nM | – | 0.682
[5], 3000 nM | – | 0.652
[6], 4.1 nM | – | 0.588
[6], 12.3 nM | – | 0.629
[6], 37 nM | – | 0.542
[6], 111.1 nM | – | 0.55
[6], 333.3 nM | – | 0.594
[6], 1000 nM | – | 0.585
[6], 3000 nM | – | 0.494
[7], 4.1 nM | – | 0.793
[7], 12.3 nM | – | 0.864
[7], 37 nM | – | 0.779
[7], 111.1 nM | – | 0.683
[7], 333.3 nM | – | 0.721
[7], 1000 nM | – | 0.599
[7], 3000 nM | – | 0.661
[8], 4.1 nM | 0.791 | –
[8], 12.3 nM | 1.47 | –
[8], 37 nM | 1.52 | –
[8], 111.1 nM | 1.43 | –
[8], 333.3 nM | 1.68 | –
[8], 1000 nM | 1.44 | –
[8], 3000 nM | 1.34 | –
[9], 4.1 nM | 2.21 | –
[9], 12.3 nM | 2 | –
[9], 37 nM | 1.93 | –
[9], 111.1 nM | 2.18 | –
[9], 333.3 nM | 2.6 | –
[9], 1000 nM | 2.46 | –
[9], 3000 nM | 3.04 | –
[10], 4.1 nM | 2.07 | –
[10], 12.3 nM | 3.56 | –
[10], 37 nM | 4.06 | –
[10], 111.1 nM | 4.75 | –
[10], 333.3 nM | 4.39 | –
[10], 1000 nM | 4.71 | –
[10], 3000 nM | 5.22 | –
[11], 4.1 nM | 0.765 | –
[11], 12.3 nM | 1.08 | –
[11], 37 nM | 1.34 | –
[11], 111.1 nM | 1.41 | –
[11], 333.3 nM | 1.38 | –
[11], 1000 nM | 1.86 | –
[11], 3000 nM | 1.87 | –
[12], 4.1 nM | 1.81 | –
[12], 12.3 nM | 2.11 | –
[12], 37 nM | 1.7 | –
[12], 111.1 nM | 2.19 | –
[12], 333.3 nM | 2.19 | –
[12], 1000 nM | 2.08 | –
[12], 3000 nM | 1.39 | –
[13], 4.1 nM | 3.65 | –
[13], 12.3 nM | 3.44 | –
[13], 37 nM | 4.09 | –
[13], 111.1 nM | 3.93 | –
[13], 333.3 nM | 3.39 | –
[13], 1000 nM | 3.78 | –
[13], 3000 nM | 3.71 | –
[14], 4.1 nM | 1.51 | –
[14], 12.3 nM | 1.62 | –
[14], 37 nM | 1.68 | –
[14], 111.1 nM | 1.91 | –
[14], 333.3 nM | 2 | –
[14], 1000 nM | 1.59 | –
[14], 3000 nM | 1.73 | –
